Columns and labels:
[1] = system: recombinant NL4-3 virus (nef section replaced with Renilla luciferase gene) in MT-2 cells; assay: HIV cell culture assay (antiviral activity, luciferase readout); type: cell-based; conditions: Renilla, NL43, Table 1a; MT-2 cells infected for 4-5 days with recombinant NL4-3 luciferase virus
Method in brief: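 Serially diluted compounds were present throughout a 4-5 day infection of MT-2 cells by recombinant NL4-3 whose nef region partly encodes Renilla luciferase. Antiviral activity was taken from live-cell luciferase signal, with the 50% effective concentration fitted by the exponential median effect equation.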

[2] = Compound cytotoxicity, XTT-based colorimetric assay; type: cell-based; conditions: human, uninfected MT2 cells, Table 1a, day 4, XTT
Method in brief: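 XTT colorimetric read-out on day 4 gave CC50 values, using MT2 cells left uninfected but otherwise handled as in the antiviral assay.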

Compound `O=C(Cn1nc(C(F)F)c2c1C(F)(F)[C@@H]1C[C@H]21)N[C@@H](Cc1cc(F)cc(F)c1)c1nc2ncccc2c(=O)n1-c1ccc2c(c1)C(=O)NC2` [Example 31, 2-[(2S,4R)-9-(difluoromethyl)-5,5-difluoro-7,8-diazatricyclo[4.3.0.0^2,4]nona-1(6),8-dien-7-yl]-N-[(1S)-2-(3,5-difluorophenyl)-1-[4-oxo-3-(3-oxo-2,3-dihydro-1H-isoindol-5-yl)-3H,4H-pyrido[2,3-d]pyrimidin-2-yl]ethyl]acetamide] has an EC50 [1] of 0.99 nM and a CC50 at 4 days [2] of over 10000 nM.
Work on `CN(C)S(=O)(=O)c1ccc(-n2c([C@H](Cc3cc(F)cc(F)c3)NC(=O)Cn3nc(C(F)F)c4c3C(F)(F)[C@@H]3C[C@H]43)nc3ncccc3c2=O)cc1` [Example 32, 2-[(2S,4R)-9-(difluoromethyl)-5,5-difluoro-7,8-diazatricyclo[4.3.0.0^2,4]nona-1(6),8-dien-7-yl]-N-[(1S)-2-(3,5-difluorophenyl)-1-{3-[4-(dimethylsulfamoyl)phenyl]-4-oxo-3H,4H-pyrido[2,3-d]pyrimidin-2-yl}ethyl]acetamide] yielded an EC50 [1] of 1.1 nM and a CC50 at 4 days [2] of over 10000 nM.
In the case of `NC(=O)c1cc(-n2c([C@H](Cc3cc(F)cc(F)c3)NC(=O)Cn3nc(C(F)F)c4c3C(F)(F)[C@@H]3C[C@H]43)nc3ncccc3c2=O)ccc1F` [Example 33, 5-{2-[(1S)-1-{2-[(2S,4R)-9-(difluoromethyl)-5,5-difluoro-7,8-diazatricyclo[4.3.0.0^2,4]nona-1(6),8-dien-7-yl]acetamido}-2-(3,5-difluorophenyl)ethyl]-4-oxo-3H,4H-pyrido[2,3-d]pyrimidin-3-yl}-2-fluorobenzamide], the EC50 [1] is reported as 3.92 nM and the CC50 at 4 days [2] is reported as over 10000 nM.
Work on `NC(=O)c1cc(-n2c([C@H](Cc3cc(F)cc(F)c3)NC(=O)Cn3nc(C(F)F)c4c3C(F)(F)[C@@H]3C[C@H]43)nc3ncccc3c2=O)ccc1Cl` [Example 34, 2-Chloro-5-{2-[(1S)-1-{2-[(2S,4R)-9-(difluoromethyl)-5,5-difluoro-7,8-diazatricyclo[4.3.0.0^2,4]nona-1(6),8-dien-7-yl]acetamido}-2-(3,5-difluorophenyl)ethyl]-4-oxo-3H,4H-pyrido[2,3-d]pyrimidin-3-yl}benzamide] yielded an EC50 [1] of 6.93 nM and a CC50 at 4 days [2] of over 10000 nM.
For `CC(C)c1ccc(-n2c([C@H](Cc3cc(F)cc(F)c3)NC(=O)Cn3nc(C(F)F)c4c3C(F)(F)[C@@H]3C[C@H]43)nc3ncccc3c2=O)cc1` [Example 35, 2-[(2S,4R)-9-(difluoromethyl)-5,5-difluoro-7,8-diazatricyclo[4.3.0.0^2,4]nona-1(6),8-dien-7-yl]-N-[(1S)-2-(3,5-difluorophenyl)-1-{4-oxo-3-[4-(propan-2-yl)phenyl]-3H,4H-pyrido[2,3-d]pyrimidin-2-yl}ethyl]acetamide], the EC50 [1] was 16.3 nM and the CC50 at 4 days [2] was 1580 nM.
Work on `O=C(Cn1nc(C(F)F)c2c1C(F)(F)[C@@H]1C[C@H]21)N[C@@H](Cc1cc(F)cc(F)c1)c1nc2ncccc2c(=O)n1-c1ccc2ncsc2c1` [Example 36, N-[(1S)-1-[3-(1,3-benzothiazol-6-yl)-4-oxo-3H,4H-pyrido[2,3-d]pyrimidin-2-yl]-2-(3,5-difluorophenyl)ethyl]-2-[(2S,4R)-9-(difluoromethyl)-5,5-difluoro-7,8-diazatricyclo[4.3.0.0^2,4]nona-1(6),8-dien-7-yl]acetamide] yielded an EC50 [1] of 10.4 nM and a CC50 at 4 days [2] of over 1000 nM.
Work on `N#Cc1cnc2nc([C@H](Cc3cc(F)cc(F)c3)NC(=O)Cn3nc(C(F)F)c4c3C(F)(F)[C@@H]3C[C@H]43)n(-c3ccc(C4CC4)cc3)c(=O)c2c1` [Example 39, N-[(1S)-1-[6-cyano-3-(4-cyclopropylphenyl)-4-oxo-3H,4H-pyrido[2,3-d]pyrimidin-2-yl]-2-(3,5-difluorophenyl)ethyl]-2-[(2S,4R)-9-(difluoromethyl)-5,5-difluoro-7,8-diazatricyclo[4.3.0.0^2,4]nona-1(6),8-dien-7-yl]acetamide] yielded an EC50 [1] of 3.76 nM and a CC50 at 4 days [2] of 2000 nM.
With `Cc1cc(C)c2c(=O)n(-c3ccc(Cl)c4c(NS(C)(=O)=O)nn(C)c34)c([C@H](Cc3cc(F)cc(F)c3)NC(=O)Cn3nc(C(F)F)c4c3C(F)(F)[C@@H]3C[C@H]43)nc2n1` [Example 42.2, N-[(1S)-1-[3-(4-chloro-3-methanesulfonamido-1-methyl-1H-indazol-7-yl)-5,7-dimethyl-4-oxo-3H,4H-pyrido[2,3-d]pyrimidin-2-yl]-2-(3,5-difluorophenyl)ethyl]-2-[(2S,4R)-9-(difluoromethyl)-5,5-difluoro-7,8-diazatricyclo[4.3.0.0^2,4]nona-1(6),8-dien-7-yl]acetamide] the EC50 [1] was 0.016 nM and the CC50 at 4 days [2] was over 10000 nM.
`Cn1nc(NS(C)(=O)=O)c2c(Cl)ccc(-n3c([C@H](Cc4cc(F)cc(F)c4)NC(=O)Cc4c[nH]c5ccc(F)cc45)nc4ncccc4c3=O)c21` [Example 51, N-[(1S)-1-[3-(4-chloro-3-methanesulfonamido-1-methyl-1H-indazol-7-yl)-4-oxo-3H,4H-pyrido[2,3-d]pyrimidin-2-yl]-2-(3,5-difluorophenyl)ethyl]-2-(5-fluoro-1H-indol-3-yl)acetamide] gave an EC50 [1] of 1.04 nM and a CC50 at 4 days [2] of over 1000 nM.
`Cn1nc(NS(C)(=O)=O)c2c(Cl)ccc(-n3c([C@H](Cc4cc(F)cc(F)c4)NC(=O)Cn4nc(C(F)(F)F)c5c4CCC5)nc4ncccc4c3=O)c21` [Example 52, N-[(1S)-1-[3-(4-chloro-3-methanesulfonamido-1-methyl-1H-indazol-7-yl)-4-oxo-3H,4H-pyrido[2,3-d]pyrimidin-2-yl]-2-(3,5-difluorophenyl)ethyl]-2-[3-(trifluoromethyl)-1H,4H,5H,6H-cyclopenta[c]pyrazol-1-yl]acetamide] gave an EC50 [1] of 0.039 nM and a CC50 at 4 days [2] of over 1000 nM.
Work on `Cn1nc(NS(C)(=O)=O)c2c(Cl)ccc(-n3c([C@H](Cc4cc(F)cc(F)c4)NC(=O)Cc4c[nH]c5ccc(O)cc45)nc4ncccc4c3=O)c21` [Example 53, N-[(1S)-1-[3-(4-chloro-3-methanesulfonamido-1-methyl-1H-indazol-7-yl)-4-oxo-3H,4H-pyrido[2,3-d]pyrimidin-2-yl]-2-(3,5-difluorophenyl)ethyl]-2-(5-hydroxy-1H-indol-3-yl)acetamide] yielded an EC50 [1] of 5.71 nM and a CC50 at 4 days [2] of over 1000 nM.
Compound `O=C(Cn1nc(C(F)F)c2c1C(F)(F)[C@@H]1C[C@H]21)NC(Cc1cc(F)cc(F)c1)c1nc2cc[nH]c2cc1-c1ccc2c(c1)C(=O)NC2` (stereo partly drawn) [Example 61, 2-((3bS,4aR)-3-(difluoromethyl)-5,5-difluoro-3b,4,4a,5-tetrahydro-1H-cyclopropa[3,4]cyclopenta[1,2-c]pyrazol-1-yl)-N-(2-(3,5-difluorophenyl)-1-(6-(3-oxoisoindolin-5-yl)-1H-pyrrolo[3,2-b]pyridin-5-yl)ethyl)acetamide] has an EC50 [1] of 4.51 nM and a CC50 at 4 days [2] of over 10000 nM.
With `Nc1c(-c2ccc3c(c2)C(=O)NC3)c([C@H](Cc2cc(F)cc(F)c2)NC(=O)Cn2nc(C(F)F)c3c2C(F)(F)[C@@H]2C[C@H]32)nc2ncnn12` [Example 62, N—((S)-1-(7-amino-6-(3-oxoisoindolin-5-yl)-[1,2,4]triazolo[1,5-a]pyrimidin-5-yl)-2-(3,5-difluorophenyl)ethyl)-2-((3bS,4aR)-3-(difluoromethyl)-5,5-difluoro-3b,4,4a,5-tetrahydro-1H-cyclopropa[3,4]cyclopenta[1,2-c]pyrazol-1-yl)acetamide] the EC50 [1] was 86.3 nM and the CC50 at 4 days [2] was over 10000 nM.
